The results in this text go back to US20210317140A1, “Heterocyclic Compounds and Methods of Use” (MEDIVATION TECHNOLOGIES, INC, priority 2013, published 2021).

Assay [1] concerns the target T1, PI3Kδ (Homo sapiens, UniProt O00329).
T1 construct: purchased Reaction Biology Corporation
Briefly: PI3Kδ kinase assay (HTRF, PIP3 detection). The following applies: for IC50: 10 dose IC50, 10 μM ATP; for PI3Kδ @ 0.1 μM (% Inh): 0.1 μM compound; for PI3Kδ @ 0.1 μM (% Inh) / PI3Kδ @ 0.01 μM (% Inh) / PI3Kδ @ 1 μM (% Inh): 10 μM ATP; for PI3Kδ @ 0.01 μM (% Inh): 0.01 μM compound; for PI3Kδ @ 1 μM (% Inh): 1 μM compound. Format: biochemical. An outline of the steps: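 10-dose HTRF assay; kinase preincubated with compound 10 min at RT, then reacted with 10 μM PIP2 and 10 μM ATP for 30 min at 30 °C in HEPES pH 7.0 buffer. PIP3 product displaces biotin-PIP3 from the Eu/APC complex; signal converted to PIP3 via standard curve, IC50 by nonlinear regression.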
A general note: Time-resolved FRET reads energy transfer from a long-lived donor to a nearby acceptor.

Assay [2] concerns the target T2, PI3Kα (Homo sapiens, UniProt P42336).
T2 construct: purchased Reaction Biology Corporation
Briefly: PI3Kα isoform profiling (PI3Kδ protocol). The settings on record: for PI3Kα @ 0.3 μM (% Inh): 0.3 μM compound; for IC50: 10 dose IC50. Format: biochemical. An excerpt: PI3Kδ assay: The PIP3 product is detected by displacement of biotin-PIP3 from an energy transfer complex consisting of Europium labeled anti-GST monoclonal antibody, a GST-tagged pleckstrin homology (PH) domain, biotinylated PIP3 and Streptavidin-Allophycocyanin (APC). Excitation of Europium in the complex results in an energy transfer to the APC and a fluorescent emission at 665 nm. The PIP3 product formed by PI 3-Kinase(h) activity displaces biotin-PIP3 from the complex resulting in a loss of energy transfer and thus a decrease in signal. This is a 3-step reaction: First, the kinase reaction with PIP2 substrate is carried out in the presence of ATP (10 μM), and the reaction is quenched with stop Solution, and then finally detect by adding Detection Mixture followed by incubation (10 min). Reaction procedure: 1) Prepare substrate in freshly prepared Reaction Buffer. 2) Deliver kinase into the substrate solution and gently mix. 3) Deliver compounds in 100% DMSO (1 μM) into the kinase reaction mixture by Acoustic technology (Echo550; nanoliter range), incubate for 10 min at RT. 4) Deliver ATP into the reaction mixture to initiate the reaction. 5) Incubate for 30 min at 30° C. 6) Quench the reaction with Stop Solution. 7) Add Detection Mixture, and incubate for overnight. 8) Measure HTRF: Ex=320 nm, ratio of Em=615 nm and Em=665 nm. The emission ratio is converted into μM PIP3 production based on PIP3 standard curves. The nonlinear regression to obtain the standard curve and IC50 values are performed using Graphpad Prism software. Assay Buffer: HEPES 50 mM (pH7.0), NaN3 0.02%, BSA 0.01%, Orthovanadate 0.1 mM, 1% DMSO. Detection buffer: HEPES 10 mM (pH7.0), BSA 0.02%, KF 0.16 M, EDTA 4 mM. Substrate: 10 μM PIP2 substrate (PI(4,5)P2).
Compounds of the invention were profiled in a 10 dose IC50 panel against PI3Kα, PI3Kβ, and PI3Kγ kinases, provided by Reaction Biology Corporation, applied to the PI3Kδ protocol provided in Example B1.

Assay [3] concerns CD69+B220+ cells. The assay is described as follows: B cell activation assay (IgD-stimulated splenocytes, CD69+B220+ cells by FACS). Format: cell-based. The settings on record: IgD 3 μg/mL, 4 h; for CD69 @ 100 nM (% Inh): 100 nM compound. In short, it runs like this:
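Mouse splenocytes (female, ~2 months), red cells lysed, at 10^6 cells/mL, pretreated 30 min at 37 °C with 100 nM compound, then anti-IgD 3 μg/mL for 4 h. Read as CD69+B220+ cells as percentage of live B220+ cells by flow cytometry.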
In general terms: Flow cytometry measures light scatter and fluorescence of single cells or particles in a stream.

T1 sequence (O00329 whole entry): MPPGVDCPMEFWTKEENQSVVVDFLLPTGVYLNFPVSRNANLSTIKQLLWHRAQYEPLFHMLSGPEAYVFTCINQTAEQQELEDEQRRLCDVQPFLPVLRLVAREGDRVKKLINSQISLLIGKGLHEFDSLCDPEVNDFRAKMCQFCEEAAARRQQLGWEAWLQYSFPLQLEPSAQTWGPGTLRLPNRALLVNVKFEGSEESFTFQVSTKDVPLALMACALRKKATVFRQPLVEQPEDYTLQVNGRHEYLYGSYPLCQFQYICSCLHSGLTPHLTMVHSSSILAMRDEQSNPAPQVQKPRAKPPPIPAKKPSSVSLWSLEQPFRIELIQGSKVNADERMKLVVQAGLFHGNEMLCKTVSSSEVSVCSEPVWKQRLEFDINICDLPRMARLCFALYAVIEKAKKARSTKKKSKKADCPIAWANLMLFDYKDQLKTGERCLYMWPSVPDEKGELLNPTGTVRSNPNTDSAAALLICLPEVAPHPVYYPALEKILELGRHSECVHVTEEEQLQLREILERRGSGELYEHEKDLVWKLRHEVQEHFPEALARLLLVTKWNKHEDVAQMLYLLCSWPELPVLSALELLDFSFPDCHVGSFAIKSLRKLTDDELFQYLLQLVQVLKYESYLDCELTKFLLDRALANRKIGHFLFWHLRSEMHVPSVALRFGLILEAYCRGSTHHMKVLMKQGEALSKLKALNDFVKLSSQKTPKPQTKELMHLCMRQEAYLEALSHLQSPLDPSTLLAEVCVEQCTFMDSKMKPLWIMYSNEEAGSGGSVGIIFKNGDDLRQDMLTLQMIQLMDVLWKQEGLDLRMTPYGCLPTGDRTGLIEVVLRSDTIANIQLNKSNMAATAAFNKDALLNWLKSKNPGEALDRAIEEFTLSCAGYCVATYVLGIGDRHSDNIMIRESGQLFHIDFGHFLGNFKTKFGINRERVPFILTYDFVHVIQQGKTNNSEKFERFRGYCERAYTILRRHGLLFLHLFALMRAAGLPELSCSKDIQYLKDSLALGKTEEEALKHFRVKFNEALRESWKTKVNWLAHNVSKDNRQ
T1 sequence (P27986 whole entry partner): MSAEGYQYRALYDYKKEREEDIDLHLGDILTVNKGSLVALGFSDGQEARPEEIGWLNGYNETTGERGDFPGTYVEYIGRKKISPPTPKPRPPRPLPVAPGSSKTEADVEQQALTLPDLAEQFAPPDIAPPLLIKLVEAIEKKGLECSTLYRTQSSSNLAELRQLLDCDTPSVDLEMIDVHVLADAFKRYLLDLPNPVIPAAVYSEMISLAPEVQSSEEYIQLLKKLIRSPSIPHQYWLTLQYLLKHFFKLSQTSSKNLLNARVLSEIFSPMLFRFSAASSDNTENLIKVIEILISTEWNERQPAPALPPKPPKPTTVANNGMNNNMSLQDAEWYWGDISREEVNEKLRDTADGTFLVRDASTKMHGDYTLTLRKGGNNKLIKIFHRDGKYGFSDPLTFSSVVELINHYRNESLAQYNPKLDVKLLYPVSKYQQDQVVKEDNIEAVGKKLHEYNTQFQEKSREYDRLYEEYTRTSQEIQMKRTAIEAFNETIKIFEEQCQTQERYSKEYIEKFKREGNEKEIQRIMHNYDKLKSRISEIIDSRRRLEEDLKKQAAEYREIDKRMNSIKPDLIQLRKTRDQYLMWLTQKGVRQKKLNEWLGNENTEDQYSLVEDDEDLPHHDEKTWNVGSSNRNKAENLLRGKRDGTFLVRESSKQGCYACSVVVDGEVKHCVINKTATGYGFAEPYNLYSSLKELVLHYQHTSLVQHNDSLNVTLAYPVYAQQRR
T2 sequence (P42336 whole entry): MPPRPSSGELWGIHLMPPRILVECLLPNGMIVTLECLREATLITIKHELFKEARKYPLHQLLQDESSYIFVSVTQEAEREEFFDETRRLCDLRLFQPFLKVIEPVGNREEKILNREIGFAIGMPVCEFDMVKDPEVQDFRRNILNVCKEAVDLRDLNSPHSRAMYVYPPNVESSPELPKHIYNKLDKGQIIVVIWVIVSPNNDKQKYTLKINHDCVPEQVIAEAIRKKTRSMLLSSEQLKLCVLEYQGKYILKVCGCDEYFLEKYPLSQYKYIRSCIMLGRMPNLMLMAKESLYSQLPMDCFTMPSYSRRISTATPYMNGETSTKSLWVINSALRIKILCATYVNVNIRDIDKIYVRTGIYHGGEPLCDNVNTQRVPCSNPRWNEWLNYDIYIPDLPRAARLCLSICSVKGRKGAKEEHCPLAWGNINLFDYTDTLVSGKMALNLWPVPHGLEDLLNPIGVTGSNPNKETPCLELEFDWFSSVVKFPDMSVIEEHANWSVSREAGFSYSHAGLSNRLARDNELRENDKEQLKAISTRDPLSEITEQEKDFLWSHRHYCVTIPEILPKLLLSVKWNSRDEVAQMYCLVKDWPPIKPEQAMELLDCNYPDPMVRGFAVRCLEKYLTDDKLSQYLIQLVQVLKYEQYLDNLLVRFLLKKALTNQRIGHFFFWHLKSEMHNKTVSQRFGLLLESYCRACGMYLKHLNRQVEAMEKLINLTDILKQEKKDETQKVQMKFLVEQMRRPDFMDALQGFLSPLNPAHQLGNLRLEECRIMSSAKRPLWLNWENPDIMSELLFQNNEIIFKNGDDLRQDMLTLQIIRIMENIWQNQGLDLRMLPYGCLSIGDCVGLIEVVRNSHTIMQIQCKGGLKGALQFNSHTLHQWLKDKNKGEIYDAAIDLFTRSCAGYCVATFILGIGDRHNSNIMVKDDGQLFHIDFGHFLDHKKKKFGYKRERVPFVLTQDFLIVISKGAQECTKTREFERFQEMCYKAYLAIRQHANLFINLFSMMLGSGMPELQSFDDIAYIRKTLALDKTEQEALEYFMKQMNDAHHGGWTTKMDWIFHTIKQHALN
T2 sequence (P27986 whole entry partner): as the sequence (P27986 whole entry partner) above

Take `Nc1ncnc2c1c(-c1ccc(F)c(O)c1)nn2C1CCc2ccccc2C1` (racemic) [Compound No. 26, 5-(4-amino-1-(1,2,3,4-tetrahydronaphthalen-2-yl)-1H-pyrazolo[3,4-d]pyrimidin-3-yl)-2-fluorophenol]: it took 66.1 nM to reach half-maximal inhibition in assay [1] (IC50). In assay [2], the “PI3Kα @ 0.3 μM (% Inh)” value amounted to 53.79 % Inh.

Take `Nc1ncnc2c1c(-c1ccc3cc[nH]c3c1)nn2C1CCc2ccccc2C1` (racemic) [compound 18, 3-(1H-indol-6-yl)-1-(1,2,3,4-tetrahydronaphthalen-2-yl)-1H-pyrazolo[3,4-d]pyrimidin-4-amine]: in assay [1], the “PI3Kδ @ 0.1 μM (% Inh)” value was determined as 18.95 % Inh and inhibition was half-maximal at 108 nM (IC50). In assay [2], the “PI3Kα @ 0.3 μM (% Inh)” value amounted to 33.14 % Inh. The “CD69 @ 100 nM (% Inh)” value in assay [3] (mouse splenocytes) is 13.22 ± 11.84 (n = 5) % Inh.

`Nc1ncnc2c1c(-c1cc(O)cc(F)c1)nn2C1CCc2ccccc2C1` (single isomer, unassigned) [6a, 3-(4-amino-1-(1,2,3,4-tetrahydronaphthalen-2-yl)-1H-pyrazolo[3,4-d]pyrimidin-3-yl)-5-fluorophenol]: in assay [1], the “PI3Kδ @ 0.1 μM (% Inh)” value was determined as 77.7 % Inh and the IC50 – broadly, the concentration that inhibits the measured activity by half – is 9.1 nM. Also, the “PI3Kα @ 0.3 μM (% Inh)” value in assay [2] (0.3 µM) came to 85.6 % Inh. Further, the “CD69 @ 100 nM (% Inh)” value in assay [3] (mouse splenocytes, 0.1 µM) is 64.71 ± 19.01 (n = 6) % Inh. In addition, inhibition in assay [3] (Mus musculus, Splenocyte) was half-maximal at 107 ± 26.2 nM (IC50).

`Nc1ncnc2c1c(-c1cc(O)cc(F)c1)nn2C1CCc2ccccc2C1` (single isomer, unassigned) [6b, 3-(4-amino-1-(1,2,3,4-tetrahydronaphthalen-2-yl)-1H-pyrazolo[3,4-d]pyrimidin-3-yl)-5-fluorophenol]: in assay [1], the “PI3Kδ @ 0.1 μM (% Inh)” value is listed as 79.6 % Inh and the IC50 is 7.7 nM. In addition, the “PI3Kα @ 0.3 μM (% Inh)” value in assay [2] (0.3 µM) is listed as 91.35 % Inh. In addition, the “CD69 @ 100 nM (% Inh)” value in assay [3] (mouse splenocytes, 0.1 µM) is on record as 68.73 ± 21.60 (n = 6) % Inh. Besides, in assay [3] (mouse splenocytes), 118 ± 104 nM corresponded to half-maximal inhibition (IC50).

As for `C=CC(=O)N1CC(n2nc(-c3cc(O)cc(F)c3)c3c(N)ncnc32)Cc2cc(C)ccc21` (single isomer, unassigned) [31b, 1-(3-(4-amino-3-(3-fluoro-5-hydroxyphenyl)-1H-pyrazolo[3,4-d]pyrimidin-1-yl)-6-methyl-3,4-dihydroquinolin-1(2H)-yl)prop-2-en-1-one], in assay [1], the “PI3Kδ @ 0.01 μM (% Inh)” value is given as 44.15 % Inh; the “PI3Kδ @ 0.1 μM (% Inh)” value came to 78.27 % Inh; the midpoint of inhibition, the IC50, lay at 10.6 nM. In assay [2], the IC50 was determined as 249 nM. Further, the “CD69 @ 100 nM (% Inh)” value in assay [3] (mouse splenocytes, 0.1 µM) is on record as −13.21 ± 4.55 (n = 3) % Inh.

Turning to `Nc1ncnc2c1c(-c1ccc(F)c(O)c1)nn2C1CCc2ccccc2C1` (single isomer, unassigned) [Compound No. 26a, 5-(4-amino-1-(1,2,3,4-tetrahydronaphthalen-2-yl)-1H-pyrazolo[3,4-d]pyrimidin-3-yl)-2-fluorophenol], in assay [1], the “PI3Kδ @ 0.1 μM (% Inh)” value worked out at 39.35 % Inh and half-maximal inhibition (IC50) required 114 nM. The same compound came in with a half-maximal inhibitory concentration (IC50) in assay [2] of 143 nM. The “CD69 @ 100 nM (% Inh)” value in assay [3] (mouse splenocytes, 0.1 µM) is listed as 16.07 ± 15.99 (n = 5) % Inh.

As for `Nc1ncnc2c1c(-c1ccc(F)c(O)c1)nn2C1CCc2ccccc2C1` (single isomer, unassigned) [Compound No. 26b, 5-(4-amino-1-(1,2,3,4-tetrahydronaphthalen-2-yl)-1H-pyrazolo[3,4-d]pyrimidin-3-yl)-2-fluorophenol], in assay [1], the “PI3Kδ @ 0.1 μM (% Inh)” value came to 47.94 % Inh and half-maximal inhibition (IC50) was put at 55.2 nM. The compound further registered an IC50 in assay [2] of 161 nM. Moreover, the “CD69 @ 100 nM (% Inh)” value in assay [3] (mouse splenocytes, 0.1 µM) is 11.62 ± 20.93 (n = 5) % Inh.

`Nc1ncnc2c1c(-c1ccc(F)c(O)c1)nn2C1Cc2ccccc2C1` [Compound No. 29, 5-(4-amino-1-indan-2-yl-pyrazolo[3,4-d]pyrimidin-3-yl)-2-fluoro-phenol]: in assay [1], the “PI3Kδ @ 0.1 μM (% Inh)” value was 61.73 % Inh and the IC50 is 61.3 nM. This compound also yielded an IC50 in assay [2] of 73.1 nM. The “CD69 @ 100 nM (% Inh)” value in assay [3] (mouse splenocytes) is reported as 17.76 ± 20.69 (n = 9) % Inh.

As to `COc1cc(-c2nn(C3Cc4ccccc4C3)c3ncnc(N)c23)ccc1C` [Compound No. 49, 1-(2,3-dihydro-1H-inden-2-yl)-3-(3-methoxy-4-methylphenyl)-1H-pyrazolo[3,4-d]pyrimidin-4-amine], in assay [1], the “PI3Kδ @ 0.1 μM (% Inh)” value is on record as 57.87 % Inh, the “PI3Kδ @ 1 μM (% Inh)” value was found to be 89.73 % Inh and inhibition was half-maximal at 119 nM (IC50). In assay [2], this compound displayed an IC50 of 504 nM. In addition, in assay [3] (mouse splenocytes), the “CD69 @ 100 nM (% Inh)” value is given as 16.42 ± 20.45 (n = 9) % Inh.

For `Nc1ncnc2c1c(-c1ccc(Cl)c(O)c1)nn2C1Cc2ccccc2C1` [Compound No. 56, 5-[4-amino-1-(2,3-dihydro-1H-inden-2-yl)-1H-pyrazolo[3,4-d]pyrimidin-3-yl]-2-chlorophenol], in assay [1], the “PI3Kδ @ 0.1 μM (% Inh)” value stood at 69.44 % Inh, the “PI3Kδ @ 1 μM (% Inh)” value came out at 99.12 % Inh and the IC50 worked out at 33.2 nM. In assay [2], the IC50 was determined as 186 nM. Besides, the “CD69 @ 100 nM (% Inh)” value in assay [3] (mouse splenocytes) is on record as 20.57 ± 19.79 (n = 9) % Inh.

Take `Nc1ncnc2c1c(-c1cc(O)cc(F)c1)cn2C1Cc2ccccc2C1` [Compound No. 63, 3-[4-amino-7-(2,3-dihydro-1H-inden-2-yl)-7H-pyrrolo[2,3-d]pyrimidin-5-yl]-5-fluorophenol]: in assay [1], the “PI3Kδ @ 0.1 μM (% Inh)” value is listed as 81.43 % Inh, the “PI3Kδ @ 1 μM (% Inh)” value was found to be 92.56 % Inh and the IC50 turned out to be 10.4 nM. Besides, the IC50 in assay [2] came to 74.7 nM. Besides, the “CD69 @ 100 nM (% Inh)” value in assay [3] (mouse splenocytes) was 21.07 ± 27.71 (n = 9) % Inh.

For the compound `COc1ccc(-c2nn(C3Cc4ccccc4C3)c3ncnc(N)c23)cc1O` [Compound No. 68, 5-[4-amino-1-(2,3-dihydro-1H-inden-2-yl)-1H-pyrazolo[3,4-d]pyrimidin-3-yl]-2-methoxyphenol], in assay [1], the “PI3Kδ @ 0.1 μM (% Inh)” value is given as 57.97 % Inh, the “PI3Kδ @ 1 μM (% Inh)” value was determined as 87.4 % Inh and it took 32.1 nM to reach half-maximal inhibition (IC50). For the same compound, the IC50 in assay [2] came to 14 nM. The “CD69 @ 100 nM (% Inh)” value in assay [3] (mouse splenocytes) is given as 44.83 ± 29.77 (n = 6) % Inh.

In the case of `Nc1ncnc2c1c(-c1ccc(Br)c(O)c1)nn2C1Cc2ccccc2C1` [compound 2, 5-(4-amino-1-(2,3-dihydro-1H-inden-2-yl)-1H-pyrazolo[3,4-d]pyrimidin-3-yl)-2-bromophenol], in assay [2], 17.3 nM corresponded to half-maximal inhibition (IC50). Also, the “CD69 @ 100 nM (% Inh)” value in assay [3] (mouse splenocytes) was 22.52 ± 18.41 (n = 5) % Inh.

As to `Nc1ncnc2c1c(-c1cc(O)cc(F)c1)nn2C1CCc2ccccc2C1` (centres unmarked) [compound 6, 3-(4-amino-1-(1,2,3,4-tetrahydronaphthalen-2-yl)-1H-pyrazolo[3,4-d]pyrimidin-3-yl)-5-fluorophenol], the IC50 in assay [1] came to 8.6 nM; in assay [2] it was 20.1 nM.

Regarding `C=CC(=O)N1CC(n2nc(-c3cc(O)cc(F)c3)c3c(N)ncnc32)Cc2cc(C)ccc21` (centres unmarked) [compound 31, 1-(3-(4-amino-3-(3-fluoro-5-hydroxyphenyl)-1H-pyrazolo[3,4-d]pyrimidin-1-yl)-6-methyl-3,4-dihydroquinolin-1(2H)-yl)prop-2-en-1-one], in assay [1], the “PI3Kδ @ 0.1 μM (% Inh)” value is 44.38 % Inh and the IC50 was 33.6 nM. In addition, in assay [2], the “PI3Kα @ 0.3 μM (% Inh)” value is 50.6 % Inh and the IC50 turned out to be 539 nM.

On to `N#Cc1cc(-c2cn(C3Cc4ccccc4C3)c3ncnc(N)c23)cc(O)c1F` [compound 115, 5-[4-amino-7-(2,3-dihydro-1H-inden-2-yl)-7H-pyrrolo[2,3-d]pyrimidin-5-yl]-2-fluoro-3-hydroxybenzonitrile], for which, in assay [1], the “PI3Kδ @ 0.01 μM (% Inh)” value was determined as 82.64 % Inh, the “PI3Kδ @ 0.1 μM (% Inh)” value amounted to 93.12 % Inh and the IC50 was determined as 1.9 nM. In assay [3] (mouse splenocytes), the “CD69 @ 100 nM (% Inh)” value is reported as 44.51 ± 5.23 (n = 3) % Inh.
